One assay deals with Caco-2 cells. The experiment in a line: Gene expression (qRT-PCR) in intestinal epithelial (Caco-2) cells. The class given is cell-based, human. As to conditions: 50 μM, 24 h. A general note: In qPCR the cycle at which signal appears reflects the starting amount.
A further assay relates to Caco-2 monolayers. The experiment in a line: Caco-2 permeability and taurocholate transport in transwell system. The class given is cell-based, human. As to conditions: 50 μM, 24 h, p value<0.001. Here is the method: The Caco-2 human adenocarcinoma cell line and Eagle's Minimum Essential Medium (EMEM) were purchased from ATCC (American Type Culture Collection, Rockville, Md.). Caco-2 cells were seeded on transwell inserts (0.4 μm pore size, Corning, N.Y.) at a density of 1.5×10^5 cells/mL and cultured for 23 days with media changes 3 times per week. On day 23, the cells were treated with either isotype control antibody (100 μg/mL), FGF19 (gp120, Genentech Inc., CA) (500 ng/mL), anti-FGF19 (100 μg/mL), DCA (Sigma-Aldrich, St. Louis, Mo.) (50 μM) or DCA (50 μM) plus anti-FGF19 (100 μg/mL) for 24 h prior to the permeability experiments. The monolayers were equilibrated for 30 min in transport buffer (HBSS with 10 mM HEPES, pH 7.4) at 37° C. and the transepithelial electrical resistance [TEER cm2), membrane area 1.12 cm^2] of each well was measured using the volt-ohm meter and STX-2 electrode. The permeabilities of lucifer yellow (LY), and taurocholate were evaluated in the apical to basolateral (A-B) direction. […] The apparent permeability for taurocholate, and LY (Papp) was calculated using the following equation: Papp=dQ/dt×1/C0A where dQ/dt is the rate of compound appearance in the receiver compartment, C0 is the concentration in the donor compartment and A is the surface area of the insert. […]
Background: Passage across Caco-2 layers is used to estimate intestinal permeability.

Results on one compound are retold here after patent US20130183294A1, “METHODS OF USING FGF19 MODULATORS” (GENENTECH, INC., priority 2012, published 2013).

In the assay with Caco-2 cells (p value<0.0001), `C[C@H](CCC(=O)O)[C@H]1CC[C@H]2[C@@H]3CC[C@@H]4C[C@H](O)CC[C@]4(C)[C@H]3C[C@H](O)[C@]12C` [DCA, deoxycholic acid] showed an IBABP expression increase of over 30 fold. This compound also gave an Ost-α expression increase in the assay with Caco-2 cells (p value<0.0015) of 2 fold. For the same compound, the Ost-β expression increase with Caco-2 cells (p value<0.05) came out at 1.3 fold. The “taurocholate uptake, reduction vs. control” value in the assay with Caco-2 monolayers was −80%.
